From PubChem BioAssay AID256 (DTP/NCI, 2004)
Where “and” joins values, the source holds several entries; their conditions need not be identical. Identical values can stand only once. Inconclusive results and toxic doses are left out. Rule for the calls: active = survival T/C of 150% or more; inactive = T/C below 125% in these data.

Tested on: CD2F1 mice, L1210 leukemia ip, survival T/C
Assay: NCI In Vivo Anticancer Drug Screen. Data for tumor model L1210 Leukemia (intraperitoneal) in CD2F1 (CDF1) mice
Conditions: endpoint: mean survival time, higher = longer survival
Outline: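 Activity against a transplanted murine tumor was judged by comparing the compound group with a vehicle group. The outcome in the treated animals was divided by that in the controls.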

[1] = dose: 100.0 mg/kg/injection, schedule: Q04DX003 (ip), vehicle: saline with Tween-80
[2] = dose: 200.0 mg/kg/injection, schedule: Q04DX003 (ip), vehicle: saline with Tween-80
[3] = dose: 400.0 mg/kg/injection, schedule: Q04DX003 (ip), vehicle: saline with Tween-80
[4] = dose: 100.0 mg/kg/injection, schedule: Q01DX001 (ip), vehicle: Klucel (hydroxypropylcellulose) (HPC)
[5] = dose: 200.0 mg/kg/injection, schedule: Q01DX001 (ip), vehicle: Klucel (hydroxypropylcellulose) (HPC)
[6] = dose: 400.0 mg/kg/injection, schedule: Q01DX001 (ip), vehicle: Klucel (hydroxypropylcellulose) (HPC)
[7] = dose: 100.0 mg/kg/injection, schedule: Q04DX002 (ip), vehicle: saline with Tween-80
[8] = dose: 50.0 mg/kg/injection, schedule: Q01DX009 (ip), vehicle: saline
[9] = dose: 200.0 mg/kg/injection, schedule: Q04DX002 (ip), vehicle: saline with Tween-80
[10] = dose: 400.0 mg/kg/injection, schedule: Q04DX002 (ip), vehicle: saline with Tween-80
[11] = dose: 100.0 mg/kg/injection, schedule: Q01DX009 (ip), vehicle: saline with Tween-80
[12] = dose: 200.0 mg/kg/injection, schedule: Q01DX009 (ip), vehicle: saline with Tween-80

Measured: T/C

C=CCCC(Cc1ccccc1)C1=NC(C)(C)CC(C)O1 (configuration not stated)
inactive: dose: 6.25 mg/kg/injection, schedule: Q01DX001 (ip), vehicle: saline 102 % of control | dose: 12.5 mg/kg/injection, schedule: Q01DX001 (ip), vehicle: saline 96 % of control | dose: 25.0 mg/kg/injection, schedule: Q01DX001 (ip), vehicle: saline 97 % of control

Cc1ccccc1Nc1cc(=O)[nH]c(=O)[nH]1
inactive: dose: 100.0 mg/kg/injection, schedule: Q01DX001 (ip), vehicle: saline with Tween-80 95 % of control | dose: 200.0 mg/kg/injection, schedule: Q01DX001 (ip), vehicle: saline with Tween-80 95 % of control | dose: 400.0 mg/kg/injection, schedule: Q01DX001 (ip), vehicle: saline with Tween-80 94 % of control

Cc1cc2c(-c3ccccc3)c(-c3ccccc3)oc(=O)c2cc1C
inactive: [1] 95 % of control | [2] 90 % of control | [3] 92 % of control

C[N+]1(O)C2CCC1CC(O)C2 (configuration not stated)
inactive: [4] 97 % of control | [5] 104 % of control | [6] 97 % of control

CC(=O)C(CNCC(=O)O)(CNCC(=O)O)C(C)=O
inactive: dose: 25.0 mg/kg/injection, schedule: Q04DX002 (ip), vehicle: saline with Tween-80 90 % of control | dose: 50.0 mg/kg/injection, schedule: Q04DX002 (ip), vehicle: saline with Tween-80 94 % of control | [7] 94 % of control

COc1ccc(CC2=NCCc3cc(OC)c(OC)cc32)cc1OC
inactive: dose: 25.0 mg/kg/injection, schedule: Q01DX009 (ip), vehicle: saline 95 % of control | dose: 25.0 mg/kg/injection, schedule: Q04DX003 (ip), vehicle: saline 110 % of control | [8] 101 % of control | dose: 50.0 mg/kg/injection, schedule: Q04DX003 (ip), vehicle: saline 104 % of control | dose: 100.0 mg/kg/injection, schedule: Q04DX003 (ip), vehicle: saline 96 % of control and 103 % of control

CCCCCCC(C)Oc1ccc(Cl)cc1Cl (configuration not stated)
inactive: [7] 90 % of control | [9] 90 % of control | [10] 101 % of control

O=C(NC(=O)c1cn(C2OC(CO)C(O)C2O)nn1)Nc1ccc(Cl)cc1 (configuration not stated)
inactive: dose: 12.5 mg/kg/injection, schedule: Q01DX005 (ip), vehicle: other 93 % of control | dose: 50.0 mg/kg/injection, schedule: Q01DX005 (ip), vehicle: other 90 % of control

O=c1[nH]c(=O)c2n[nH]nc2[nH]1
inactive: dose: 23.0 mg/kg/injection, schedule: Q01DX009 (ip), vehicle: saline 104 % of control | dose: 35.0 mg/kg/injection, schedule: Q01DX009 (ip), vehicle: saline 101 % of control | [8] 98 % of control

NC(=O)c1nc(C2OC(CO)C(O)C2O)no1 (configuration not stated)
inactive: dose: 12.5 mg/kg/injection, schedule: Q01DX005 (ip), vehicle: water 98 % of control | dose: 25.0 mg/kg/injection, schedule: Q01DX005 (ip), vehicle: water 98 % of control | dose: 50.0 mg/kg/injection, schedule: Q01DX005 (ip), vehicle: water 108 % of control | dose: 100.0 mg/kg/injection, schedule: Q01DX005 (ip), vehicle: water 98 % of control | dose: 200.0 mg/kg/injection, schedule: Q01DX005 (ip), vehicle: water 98 % of control

CC(=O)OC1CCC2(C)C(=CC=C3C2CCC2(C)C3CCC2C(C)/C=C/C(C)C(C)C)C1 (configuration not stated)
inactive: dose: 50.0 mg/kg/injection, schedule: Q01DX009 (ip), vehicle: Klucel (hydroxypropylcellulose) (HPC) 89 % of control | dose: 100.0 mg/kg/injection, schedule: Q01DX009 (ip), vehicle: Klucel (hydroxypropylcellulose) (HPC) 101 % of control | dose: 200.0 mg/kg/injection, schedule: Q01DX009 (ip), vehicle: Klucel (hydroxypropylcellulose) (HPC) 93 % of control

O=c1cc(Cc2ccccc2)[nH]c(=S)[nH]1
inactive: [4] 94 % of control | [5] 95 % of control | [6] 89 % of control

COc1ccc(NC(=O)c2ccccc2)c([N+](=O)[O-])c1
inactive: [1] 105 % of control | [2] 97 % of control | [3] 94 % of control

C1CC[N-]CC1.C1CC[N-]CC1.N#C[S-].N#C[S-].[Cu]
inactive: dose: 2.5 mg/kg/injection, schedule: Q04DX003 (ip), vehicle: saline with Tween-80 98 % of control | dose: 5.0 mg/kg/injection, schedule: Q04DX003 (ip), vehicle: saline with Tween-80 92 % of control

O=[N+]([O-])c1ccccc1O
inactive: dose: 100.0 mg/kg/injection, schedule: Q04DX003 (ip), vehicle: Klucel (hydroxypropylcellulose) (HPC) 97 % of control | dose: 200.0 mg/kg/injection, schedule: Q04DX003 (ip), vehicle: Klucel (hydroxypropylcellulose) (HPC) 97 % of control | dose: 400.0 mg/kg/injection, schedule: Q04DX003 (ip), vehicle: Klucel (hydroxypropylcellulose) (HPC) 96 % of control

C1OC1C1CO1 (configuration not stated)
inactive: dose: 1.25 mg/kg/injection, schedule: Q01DX009 (ip), vehicle: saline 97 % of control and 98 % of control | dose: 2.5 mg/kg/injection, schedule: Q01DX009 (ip), vehicle: saline 95 % of control and 100 % of control | dose: 5.0 mg/kg/injection, schedule: Q01DX009 (ip), vehicle: saline 96 % of control and 103 % of control | dose: 10.0 mg/kg/injection, schedule: Q01DX009 (ip), vehicle: saline 98 % of control and 105 % of control | dose: 20.0 mg/kg/injection, schedule: Q01DX009 (ip), vehicle: saline 103 % of control and 112 % of control | dose: 40.0 mg/kg/injection, schedule: Q01DX009 (ip), vehicle: saline 108 % of control

O=C(COc1ccc(Cl)cc1Cl)Nc1ccccc1
inactive: [7] 91 % of control | [9] 95 % of control | [10] 98 % of control

CCCC(C(=O)O)C(CCC)C(=O)O (configuration not stated)
inactive: [1] 96 % of control | [2] 104 % of control | [3] 101 % of control

COC(=O)CCC(=O)c1ccc(C)cc1
inactive: dose: 100.0 mg/kg/injection, schedule: Q04DX003 (ip), vehicle: acetone 94 % of control | dose: 200.0 mg/kg/injection, schedule: Q04DX003 (ip), vehicle: acetone 104 % of control | dose: 400.0 mg/kg/injection, schedule: Q04DX003 (ip), vehicle: acetone 98 % of control

COC(=O)c1cc(C)n(-c2ccc(C)cc2)c1C
inactive: [1] 100 % of control | [2] 96 % of control | [3] 97 % of control

CCOC(=O)C(C)C(O)c1ccc(OC)cc1 (configuration not stated)
inactive: dose: 12.5 mg/kg/injection, schedule: Q01DX009 (ip), vehicle: saline with Tween-80 101 % of control | dose: 25.0 mg/kg/injection, schedule: Q01DX009 (ip), vehicle: saline with Tween-80 101 % of control | dose: 50.0 mg/kg/injection, schedule: Q01DX009 (ip), vehicle: saline with Tween-80 93 % of control

CCc1nc(-c2ccccc2)c(-c2ccccc2)[nH]1
inactive: [1] 90 % of control | [2] 92 % of control | [3] 90 % of control

CC(C)(C)OC(=O)NNC(c1ccccc1)c1ccccc1
inactive: [11] 101 % of control | [1] 98 % of control | [12] 95 % of control | [2] 95 % of control | [3] 97 % of control

CN(C)Cc1cc(C(C)(C)CC(C)(C)C)cc(CN(C)C)c1O
inactive: dose: 25.0 mg/kg/injection, schedule: Q04DX003 (ip), vehicle: saline with Tween-80 98 % of control | dose: 50.0 mg/kg/injection, schedule: Q04DX003 (ip), vehicle: saline with Tween-80 100 % of control | [1] 96 % of control and 97 % of control

C=CCN(CC=C)C1=CC(=O)C(=O)c2ccccc21
inactive: dose: 75.0 mg/kg/injection, schedule: Q01DX001 (ip), vehicle: saline 91 % of control | dose: 150.0 mg/kg/injection, schedule: Q01DX001 (ip), vehicle: saline 100 % of control | dose: 300.0 mg/kg/injection, schedule: Q01DX001 (ip), vehicle: saline 89 % of control

COC1CC2C3CCC4(OC5CC(C)CN(C(C)=O)C5C4C)C(C)=C3C(=O)C2C2(C)CCC3CC312 (configuration not stated)
inactive: [1] 106 % of control | [2] 101 % of control | [3] 104 % of control

CCC1=C[C@H]2CN(CCc3c([nH]c4ccccc34)[C@@](C(=O)OC)(c3cc4c(cc3OC)N(C)[C@H]3[C@@](O)(C(=O)NC)[C@H](OC(C)=O)[C@]5(CC)C=CCN6CC[C@]43[C@@H]65)C2)C1
inactive: dose: 0.03 mg/kg/injection, schedule: Q01DX009 (ip), vehicle: water 101 % of control | dose: 0.06 mg/kg/injection, schedule: Q01DX009 (ip), vehicle: water 111 % of control

NS(=O)(=O)c1ccc(N=Cc2ccccc2O)cc1
inactive: [11] 95 % of control | [12] 89 % of control | dose: 400.0 mg/kg/injection, schedule: Q01DX009 (ip), vehicle: saline with Tween-80 86 % of control

CC(C)(C)N1CC(C(O)(c2ccccc2)c2ccccc2)C1
inactive: dose: 25.0 mg/kg/injection, schedule: Q01DX001 (ip), vehicle: saline with Tween-80 101 % of control | dose: 50.0 mg/kg/injection, schedule: Q01DX001 (ip), vehicle: saline with Tween-80 101 % of control
